Experimental findings from US9416126B2, “Compounds inhibiting leucine-rich repeat kinase enzyme activity” (Merck Sharp & Dohme Corp., priority 2013, dated 2016) are described below.

The term IC50 denotes the concentration that inhibits the measured activity by half.

Sequence of LRRK2(G2019S mutation, GST-LRRK2(amino acids 970-2527)) (Q5S007 970-2527 G2019S): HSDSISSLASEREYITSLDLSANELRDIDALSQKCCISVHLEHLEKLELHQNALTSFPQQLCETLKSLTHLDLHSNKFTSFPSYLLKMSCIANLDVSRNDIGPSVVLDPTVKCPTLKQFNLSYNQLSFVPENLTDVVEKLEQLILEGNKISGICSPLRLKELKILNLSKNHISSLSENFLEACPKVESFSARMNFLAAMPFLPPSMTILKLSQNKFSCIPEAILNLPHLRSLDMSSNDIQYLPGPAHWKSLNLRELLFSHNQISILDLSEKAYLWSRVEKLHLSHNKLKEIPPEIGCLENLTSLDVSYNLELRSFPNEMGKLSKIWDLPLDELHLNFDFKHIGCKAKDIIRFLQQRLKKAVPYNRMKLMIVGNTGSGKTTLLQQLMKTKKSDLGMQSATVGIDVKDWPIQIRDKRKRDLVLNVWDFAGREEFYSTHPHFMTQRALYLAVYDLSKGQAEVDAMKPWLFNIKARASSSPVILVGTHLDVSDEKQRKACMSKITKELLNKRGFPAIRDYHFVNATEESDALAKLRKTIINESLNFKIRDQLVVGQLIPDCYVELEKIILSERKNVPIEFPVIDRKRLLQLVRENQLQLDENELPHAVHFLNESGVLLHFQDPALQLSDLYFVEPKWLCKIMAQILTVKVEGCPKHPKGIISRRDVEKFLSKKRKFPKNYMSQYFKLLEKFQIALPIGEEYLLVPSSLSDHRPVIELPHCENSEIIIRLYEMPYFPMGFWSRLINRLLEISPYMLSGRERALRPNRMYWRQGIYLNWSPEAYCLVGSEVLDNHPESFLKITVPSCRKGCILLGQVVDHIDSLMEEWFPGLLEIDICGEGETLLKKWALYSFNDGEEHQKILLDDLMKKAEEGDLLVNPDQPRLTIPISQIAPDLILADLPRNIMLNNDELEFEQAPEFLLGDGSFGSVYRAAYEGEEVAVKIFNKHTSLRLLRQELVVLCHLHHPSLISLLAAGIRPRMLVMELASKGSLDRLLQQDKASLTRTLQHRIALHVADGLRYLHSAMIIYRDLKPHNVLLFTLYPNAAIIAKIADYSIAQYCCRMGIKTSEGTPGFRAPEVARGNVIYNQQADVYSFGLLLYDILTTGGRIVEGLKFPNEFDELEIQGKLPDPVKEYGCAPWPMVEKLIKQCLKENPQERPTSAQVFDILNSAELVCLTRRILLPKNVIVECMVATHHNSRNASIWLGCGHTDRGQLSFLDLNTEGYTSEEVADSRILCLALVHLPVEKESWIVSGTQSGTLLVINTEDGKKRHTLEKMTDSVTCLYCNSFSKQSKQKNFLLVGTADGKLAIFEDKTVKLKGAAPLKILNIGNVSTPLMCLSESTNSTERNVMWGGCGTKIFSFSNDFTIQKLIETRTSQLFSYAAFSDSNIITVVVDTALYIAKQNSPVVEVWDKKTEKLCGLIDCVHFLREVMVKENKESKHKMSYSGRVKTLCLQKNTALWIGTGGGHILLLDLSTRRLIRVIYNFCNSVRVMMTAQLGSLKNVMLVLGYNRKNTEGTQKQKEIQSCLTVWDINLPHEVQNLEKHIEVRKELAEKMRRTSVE

The target in one experiment is LRRK2(G2019S mutation, GST-LRRK2(amino acids 970-2527)) (Homo sapiens (Human), UniProt Q5S007, G2019S). The experiment in a line: LRRK2 Km ATP LanthaScreen Assay. The following applies: Examples N1-N25. Type of experiment: biochemical. The method in brief:
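TR-FRET: GST-LRRK2 970-2527 G2019S (2.5 nM solution) preincubated 30 min with compound (98 μM top, 1:2.15 dilutions), then 800 nM fluorescein-LRRKtide and 184 μM ATP solution added for 60 min at room temperature in Tris pH 8.5 buffer. Stopped with EDTA and Tb anti-phospho-LRRKtide antibody; IC50 is a mean of several tests.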
On the technique in general: Time-resolved FRET reads energy transfer from a long-lived donor to a nearby acceptor.
On to `Cc1nc2c(o1)CCN(c1cc(-c3n[nH]c4cc(F)c(OC(C)C)cc34)ncn1)C2` [Example N14], for which half-maximal inhibition (IC50) was put at 6.4 nM.
The same measure, in the same setting: the figure for `COCC1CN(c2cc(-c3n[nH]c4cc(F)c(OC(C)C)cc34)ncn2)CCO1` (stereo not shown) [Example N12] is 2.9 nM; for `COCC(=O)N1CCN(c2cc(-c3n[nH]c4cc(F)c(OC(C)C)cc34)ncn2)CC1` [Example N2] it is 5.6 nM; for `CC(C)Oc1cc2c(-c3cc(N4C[C@H](O)[C@@H](N(C)C)C4)ncn3)n[nH]c2cc1F` [Example N18] it is 7.9 nM.
As for `CC(C)Oc1cc2c(-c3cc(N4CC[C@@H](CO)C4)ncn3)n[nH]c2cc1F` [Example N7], the IC50 came to 2.9 nM.
Turning to `CC(C)Oc1cc2c(-c3cc(N4[C@H](C)COC[C@@H]4C)ncn3)n[nH]c2cc1F` [Example N25], half-maximal inhibition (IC50) required 5.4 nM.

The same experiment, now with this note: Examples O1-O23.
On to `COC[C@H](C)Oc1ccc2[nH]nc(-c3cc(N4CCOC[C@@H]4C)ncn3)c2c1` [Example O16], for which the half-maximal inhibitory concentration (IC50) turned out to be 6 nM.
As for `COC[C@H](C)Oc1ccc2[nH]nc(-c3cc(N4CCN(C)C(=O)C4)ncn3)c2c1` [Example O9], the concentration for half-maximal inhibition (IC50) turned out to be 10.9 nM.
As to `COC[C@H](C)Oc1ccc2[nH]nc(-c3cc(N4C[C@H](F)[C@@H](F)C4)ncn3)c2c1` [Example O12], the IC50 came to 7.9 nM.

The same experiment, now with this note: Examples P1-P18.
`c1nc(-c2n[nH]c3ccc(-c4ccc5ncnn5c4)cc23)cc(N2CCOCC2)n1` [Example P2] showed an IC50 of 193 nM.
`O=C(NCCO)c1ccc(-c2ccc3[nH]nc(-c4cc(N5CCOCC5)ncn4)c3c2)cc1` [Example P18] displayed an IC50 of 154 nM.
Same read-out and setting: for `Cn1nccc1-c1ccc2[nH]nc(-c3cc(N4CCOCC4)ncn3)c2c1` [Example P13] the value was 45.7 nM.
Same read-out and setting: for `N#Cc1cc(-c2ccc3[nH]nc(-c4cc(N5CCOCC5)ncn4)c3c2)ccn1` [Example P1] the value was 340 nM.

The experiment is the same for the next values; noted with them: Examples Q1-Q20.
Compound `C[C@@H]1CN(c2cc(-c3n[nH]c4ccc(-c5cnc(N6CCCC6)s5)cc34)ncn2)C[C@H](C)O1` [Example Q13] showed a 50% inhibitory concentration (IC50) of 7.6 nM.
The same measure, in the same setting: for `C[C@@H]1CN(c2cc(-c3n[nH]c4ccc(-c5cncnc5)cc34)ncn2)C[C@H](C)O1` [Example Q8] the value was 30.3 nM.
Consider `C[C@@H]1CN(c2cc(-c3n[nH]c4ccc(-c5cccc(C#N)c5)cc34)ncn2)C[C@H](C)O1` [Example Q19], for which the IC50 came to 47.9 nM.
On to `C[C@@H]1CN(c2cc(-c3n[nH]c4ccc(-c5ccc6nncn6c5)cc34)ncn2)C[C@H](C)O1` [Example Q16], for which half-maximal inhibition (IC50) required 60.6 nM.
Still for that read-out and setting: for `C[C@@H]1CN(c2cc(-c3n[nH]c4ccc(-c5ccc6ncnn6c5)cc34)ncn2)C[C@H](C)O1` [Example Q1] the value was 240 nM.

The experiment is the same for the next values; noted with them: Km ATP (184 μM ATP solution), G2019S LRRK2, mean IC50.
Consider `CCN1CCN(c2cc(-c3n[nH]c4ccc(OC)cc34)ncn2)CC1=O` [Example E11], for which half-maximal inhibition (IC50) was put at 78.3 nM.
As to `Cc1nc2c(o1)CCN(c1cc(-c3n[nH]c4cc(F)c(-c5cnn(C)c5)cc34)ncn1)C2` [Example L17], the 50% inhibitory concentration (IC50) was found to be 53.4 nM.
Same read-out and setting: the figure for `CC(C)Oc1ccc2[nH]nc(-c3cc(N4CCN(C(=O)C5CC5)CC4)ncn3)c2c1` [Example D22] is 4.15 nM; for `CC(C)Oc1cc2c(-c3cc(N4CCO[C@@H](C)C4)ncn3)n[nH]c2cc1F` [Example D38] it is 5.01 nM; for `CC(C)Oc1ccc2[nH]nc(-c3cc(N4CCC(F)(F)CC4)ncn3)c2c1` [Example J15] it is 20.2 nM.
`CC(C)Oc1cc2c(-c3cc(N4CCN(C5CC5)CC4)ncn3)n[nH]c2cc1F` [Example D45] showed a half-inhibitory concentration (IC50) of 3.99 nM.
In turn, `CC(C)Oc1cc2c(-c3cc(N4CCN(S(=O)(=O)C5CC5)CC4)ncn3)n[nH]c2cc1F` [Example D63] showed an IC50 of 4.17 nM.
Still for that read-out and setting: for `CCOc1ccc2[nH]nc(-c3cc(N4C[C@@H](C)O[C@@H](C)C4)ncn3)c2c1` [Example F2] the value was 12.8 nM.
Compound `CC(C)Oc1cc2c(-c3cc(N4CCN(C(C)C)C(=O)C4)ncn3)n[nH]c2cc1F` [Example D69] displayed a half-maximal inhibitory concentration (IC50) of 3.09 nM.
Regarding `CC(C)=Cc1ccc2[nH]nc(-c3cc(N4CCN(S(C)(=O)=O)CC4)ncn3)c2c1` [Example S2], half-maximal inhibition (IC50) required 28.8 nM.
In turn, `CC(C)Oc1ccc2[nH]nc(-c3cc(N4CC[C@H](F)C4)ncn3)c2c1` [Example J26] came in with an IC50 of 9.5 nM.
Same read-out and setting: for `Cn1cc(-c2cc3c(-c4cc(N5CC[C@H](CF)C5)ncn4)n[nH]c3cc2F)cn1` [Example L2] the value was 13.6 nM; for `c1cnc(-c2ccc3[nH]nc(-c4cc(N5CCOCC5)ncn4)c3c2)cn1` [Example I1], 34.7 nM; for `CCc1nnc2n1CCN(c1cc(-c3n[nH]c4ccc(OC(C)C)cc34)ncn1)C2` [Example J19], 8.6 nM.
Take `CO[C@H]1CN(c2cc(-c3n[nH]c4ccc(-c5cnn(C)c5)cc34)ncn2)C[C@@H]1O` [Example M23]: the concentration for half-maximal inhibition (IC50) came to 6 nM.
Consider `Cn1cc(-c2cc3c(-c4cc(N5CCc6nccnc6C5)ncn4)n[nH]c3cc2F)cn1` [Example L26], for which 11.1 nM corresponded to half-maximal inhibition (IC50).
On the same count and under the same terms, the figure for `CC(C)Oc1cc2c(-c3cc(N4CC[C@@H](N)C4)ncn3)n[nH]c2cc1F` [Example D58] is 7.3 nM.
Take `CCN1CCN(c2cc(-c3n[nH]c4ccc(OCCOC)cc34)ncn2)CC1=O` [Example G9]: the IC50 amounted to 107 nM.
Same read-out and setting: for `COCCOc1ccc2[nH]nc(-c3cc(N4CCN(C5CC5)CC4)ncn3)c2c1` [Example G5] the value was 97 nM; for `C[C@H]1CN(c2cc(-c3n[nH]c4ccc(-c5cnn(C)c5)cc34)ncn2)CCO1` [Example M12], 2.2 nM; for `COC[C@H](C)Oc1ccc2[nH]nc(-c3cc(N4C[C@@H](C)O[C@@H](C)C4)ncn3)c2c1` [Example H5], 1.7 nM.
Still for that read-out and setting: the figure for `COCCOc1ccc2[nH]nc(-c3cc(N4CCN(C)CC4)ncn3)c2c1` [Example G4] is 67.2 nM; for `CCN1CCN(c2cc(-c3n[nH]c4ccc(OC(C)C)cc34)ncn2)CC1` [Example K3] it is 6 nM; for `Cn1cc(-c2cc3c(-c4cc(N5CCc6oncc6C5)ncn4)n[nH]c3cc2F)cn1` [Example L10] it is 453 nM.
Compound `COCCOc1ccc2[nH]nc(-c3cc(N4CCN(S(C)(=O)=O)CC4)ncn3)c2c1` [Example G1] came in with an IC50 of 64.7 nM.
In turn, `CO[C@H]1CN(c2cc(-c3n[nH]c4ccc(OC(C)C)cc34)ncn2)C[C@@H]1O` [Example J8] yielded an IC50 of 18.6 nM.
On to `CN(C)[C@@H]1CCN(c2cc(-c3n[nH]c4cc(F)c(-c5cnn(C)c5)cc34)ncn2)C1` [Example L24], for which the half-maximal inhibitory concentration (IC50) was found to be 58 nM.
`CCOc1ccc2[nH]nc(-c3cc(N4CCN(CC)CC4)ncn3)c2c1` [Example F8] displayed an IC50 of 12.6 nM.
On the same count and under the same terms, for `Cn1cc(-c2ccc3[nH]nc(-c4cc(N5CCn6ncnc6C5)ncn4)c3c2)cn1` [Example M3] the value was 8.5 nM; for `Cn1cc(-c2ccc3[nH]nc(-c4cc(N5CCc6nccnc6C5)ncn4)c3c2)cn1` [Example M28], 2.7 nM; for `CC(C)Oc1cc2c(-c3cc(N4CCO[C@H](C)C4)ncn3)n[nH]c2cc1F` [Example D39], 2.87 nM.
As to `COC[C@H](C)Oc1ccc2[nH]nc(-c3cc(N4CCN(S(C)(=O)=O)CC4)ncn3)c2c1` [Example H6], the IC50 turned out to be 4.5 nM.
Same read-out and setting: the figure for `Cn1cc(-c2cc3c(-c4cc(N5CCCC(F)(F)C5)ncn4)n[nH]c3cc2F)cn1` [Example L3] is 23.4 nM; for `Cn1cc(-c2cc3c(-c4cc(N5CCC(F)(C#N)CC5)ncn4)n[nH]c3cc2F)cn1` [Example L19] it is 39.4 nM; for `COC[C@H](C)Oc1ccc2[nH]nc(-c3cc(N4CCC5(CC4)CNC(=O)C5)ncn3)c2c1` [Example H11] it is 2.85 nM.
Same read-out and setting: for `CN(C)[C@H]1CCN(c2cc(-c3n[nH]c4ccc(-c5cnn(C)c5)cc34)ncn2)C1` [Example M19] the value was 4.6 nM.
For `Cn1cc(-c2ccc3[nH]nc(-c4cc(N5CCN6C(=O)OCC6C5)ncn4)c3c2)cn1` (stereo not shown) [Example M15], half-maximal inhibition (IC50) required 6.3 nM.
In turn, `COCCN(C)c1cc(-c2n[nH]c3ccc(OC(C)C)cc23)ncn1` [Example D19] came in with a half-maximal inhibitory concentration (IC50) of 66.5 nM.
The same measure, in the same setting: for `CC(C)Oc1ccc2[nH]nc(-c3cc(N4CCN(C)CC4)ncn3)c2c1` [Example J17] the value was 5.4 nM; for `Cn1cc(-c2ccc3[nH]nc(-c4cc(N5CCS(=O)(=O)CC5)ncn4)c3c2)cn1` [Example M18], 22.4 nM; for `CC(C)Oc1ccc2[nH]nc(-c3cc(N4CCN(S(C)(=O)=O)CC4)ncn3)c2c1` [Example D7], 7.99 nM.
The same measure, in the same setting: for `CCOc1ccc2[nH]nc(-c3cc(N4CCN(C(C)=O)CC4)ncn3)c2c1` [Example F11] the value was 18 nM; for `CCN1CCN(c2cc(-c3n[nH]c4ccc(OCCOC)cc34)ncn2)CC1` [Example G8], 97 nM; for `CO[C@H]1CCN(c2cc(-c3n[nH]c4ccc(-c5cnn(C)c5)cc34)ncn2)C1` [Example M10], 2.6 nM.
The compound `CC(C)Oc1ccc2[nH]nc(-c3cc(N4CCN(S(=O)(=O)C5CC5)CC4)ncn3)c2c1` [Example D23] came in with an IC50 of 5.51 nM.
As for `Cn1cc(-c2ccc3[nH]nc(-c4cc(N5CCOC6(CC6)C5)ncn4)c3c2)cn1` [Example A4], the concentration for half-maximal inhibition (IC50) was found to be 2.01 nM.
Still for that read-out and setting: the figure for `CC(C)Oc1ccc2[nH]nc(-c3cc(N4CC5CCC(C4)O5)ncn3)c2c1` [Example D8] is 29.2 nM.
Still for that read-out and setting: for `Cn1cc(-c2cc3c(-c4cc(N5C[C@@H](F)[C@H](F)C5)ncn4)n[nH]c3cc2F)cn1` [Example L14] the value was 29.9 nM; for `Cn1cc(-c2ccc3[nH]nc(-c4cc(N5CCN(CCCO)CC5)ncn4)c3c2)cn1` [Example M25], 3 nM.

The experiment is the same for the next values; noted with them: Table U.
For `CC(C)N1CCN(c2cc(-c3n[nH]c4ccc(-c5cn[nH]c5)cc34)ncn2)CC1` [Example U24], the IC50 came out at 0.96 nM.
Still for that read-out and setting: the figure for `COc1ccncc1-c1ccc2[nH]nc(-c3cc(N4CCC(F)(F)CC4)ncn3)c2c1` [Example U4] is 6.66 nM; for `FC1(F)CCN(c2cc(-c3n[nH]c4ccc(-c5ccsc5)cc34)ncn2)CC1` [Example U2] it is 348 nM.
